According to patent publication US7618663B2, “Anti-arthritic herbal composition and method thereof” (priority 2004, dated 2009):
Marks after values point to notes of the source that are not given here.

Key:
stomach = conditions: known side effect of the drug; cited from earlier work
[1] = system: formaldehyde-induced arthritis; assay: formaldehyde-induced acute arthritis, paw edema; format: in vivo, rat; conditions: dose 30 mg/kg; given 24 hours before formalin and continued for 13 days; mean ± S.E.M., six rats
Description: Formaldehyde-induced arthritis was produced in rats by injecting 0.1 ml of 2% formaldehyde in the hind paw under the planter aponeurosis. Paw volume was measured daily for 13 days. The test composition was given 24 hours before formalin injection and continued for 13 days.

[2] = system: formalin arthritis and granuloma pouch; conditions: cited from earlier work

SMILES: CC(C)Cc1ccc(C(C)C(=O)O)cc1 (stereo not shown) [Ibuprofen]
- ulcer in the stomach (stomach): causes ulcer in the stomach
- % Edema (Swelling) [1]: 27.80 ± 4.2^b %

SMILES: C[C@H]1C[C@H]2[C@@H]3CCC4=CC(=O)C=C[C@]4(C)[C@@]3(F)[C@@H](O)C[C@]2(C)[C@@]1(O)C(=O)CO [betamethasone]
- mortality rate ([2]; albino rats): 12 out of 29
- gastric side effects-ulcer and bleeding ([2]; rats): 10 out of 12
